pEC50, pIC50: −log10 of the molar value. Like-named read-outs stand apart in the source and are kept apart here.
Columns and labels:
Format in all cases: cell-based, human
CD34+ cells, AAVS1 = test: HDR gene editing in CD34+ cells at AAVS1 (Summary Table); conditions: for pEC50: Homo sapiens
Description: (§1) Primary human mobilized peripheral blood (mPB) CD34^+ hematopoietic stem and progenitor cells (HSPCs) were purchased from Hemacare or AllCells. Cells were thawed, washed and resuspended in complete medium comprised of serum free medium CellGro SCGM (CellGenix) and supplemented with cytokine mix (300 ng/mL SCF, 300 ng/mL Flt3L, 100 ng/mL TPO, 60 ng/ml IL-3) at a density of 1-3×10^5 cells per mL and incubated at 37° C./5% CO2 incubator for 48 hours prior to electroporation.
(§2) CD34+ cells were electroporated two days post thaw. The following conditions were used for electroporation: 2.0×E6 cells, 15 μg Cas9 protein (Feldan), 15 μg sgRNA, 1 μM of ssODN in 100 μl of P3 electroporation buffer using program CA-137. Electroporated cells were transferred by equally dividing them into eight wells of a 24-well plate, each well containing various concentrations of DNA-PK inhibitors. Cells were incubated at 37° C. in a 5% CO2 incubator for two days and evaluated for cell viability and gene editing.
(§3) Genomic DNA was isolated by incubating cells with 50 μl DNA Quickextract solution (Epicentre) per well of 96 well plate for 30 min at 37° C. Cellular extract was mixed and transferred into a PCR plate and then incubated for 6 min at 65° C. and 2 min at 98° C. PCR reactions were carried out with 1 μl of Genomic DNA containing solution by using AccuPrime™ Pfx DNA Polymerase (Thermofisher, 12344024). PCR conditions were 4 min at 94° C. (1×), followed by 15 s at 94° C., 15 s at 60° C. and 1 min at […] (40×). The PCR products were purified and then Sanger sequenced by GENEWIZ. The following primer pairs spanning the target site were used for PCR (FW, forward; RV, reverse). Primers used by Sanger Sequencing are indicated by an asterisk (*): […]
(§4) Each sequence chromatogram was analyzed using TIDE (Tracking of Indels by Decomposition) software (http://tide.nki.nl) (See also Brinkman et al., Nucleic Acids Research, Volume 42, Issue 22, 16 Dec. 2014, Pages e168). Mock-electroporated samples were used as the reference sequence, and parameters were set to an indel size of 30 nt, and the decomposition window was set to cover the largest possible window with high-quality traces. Total indel (insertion and deletions) rates were obtained directly from TIDE plots. HDR rates were the percentage of events with an insertion of 10 Nucleotides. NHEJ Rates were calculated as Total Indel rate—HDR rate. GraphPad Prism 7 software was used to make Graphs and to calculate the all Statistical information.

[1] = tested on: Induced Pluripotent Stem Cells (iPSCs), AAVS1; test: Gene editing rates (TIDE assay) in iPSCs electroporated with spCAS9 mRNA, AAVS1 sgRNA and AAVS1 PAM ssODN
Description: Induced Pluripotent Stem Cells (iPSCs) were derived from Human dermal fibroblasts after viral transduction with Yamanaka's reprogramming factors, Oct4, Sox2, KLF4 and c-Myc. Derived iPSCs were able to differentiate into 3 germ layers and contained a normal karyotype with 23 pairs of Chromosomes.
For iPSCs the following conditions were used: 2.0×E5 Cells, 250 ng of CAS9 mRNA, 500 ng of sgRNA and 0.66 μM of ssODN in 20 μl of P3 Electroporation buffer by using program CA-137. The electroporated cells were transferred to a 96 well plate containing 100 μl of mTEsR1 media (Stem Cell Technologies) supplemented with 10 μM ROCK Inhibitor Y-27632 (Stem Cell Technologies) with or without DNA-PK inhibitors and then incubated at 37° C. in a 5% CO2 incubator.
as §3, §4
To investigate the effect of DNA-PK inhibitors on HDR gene editing rates, iPSCs were electroporated with spCAS9 mRNA, AAVS1 sgRNA and AAVS1 PAM ssODN and then incubated with different concentrations of Compound 1 or left untreated (Control). Gene editing rates were determined by using TIDE assay 72 hs after electroporation. Gene editing rates were expressed in percentages and classified as HDR and NHEJ. Cell survival rates are shown in percentages where control cells were set as 100%.

[2] = tested on: Bronchial Epithelial Cells (BECs), AAVS1; test: HDR rates in BECs, gene editing components delivered by lipid-mediated transfection (AAVS1); conditions: AAVS1, lipid-based transfection, 72 hs after transfection
Description: (§5) Bronchial Epithelial Cells (BECs) were derived from human donors diagnosed with Cystic Fibrosis with a CFTR dF508/dF508 genotype.
One day prior to transfection, BECs were seeded in a 96-well plate at a cell density of 1×E4 cells per well in BECs culture media. First, 0.15 μl of MessengerMax (ThermoFisher, LMRNA 003) was diluted into 5 μl of Opti-MEM and incubated for 10 min at room temperature. Meanwhile, 80 ng of Cas9 mRNA (Trilink, L-7206), 20 ng of sgRNA (Synthego) and 1 picomol of ssODN were added to 5 μl of Opti-MEM and then mixed with MessengerMAx solution. The mixture was incubated for 5 min prior to addition to the cells. The entire solution was added to the cells in a well of 96-well plate with 100 μl of culture media with or without DNA-PK inhibitors. Cells were incubated at 37° C. for in a 5% CO2 incubator. […]
(§6) Each sequence chromatogram was analyzed using TIDE (Tracking of Indels by Decomposition) software (http://tide.nki.nl) (See also Brinkman et al., Nucleic Acids Research, Volume 42, Issue 22, 16 Dec. 2014, Pages e168). […] NHEJ Rates were calculated as Total Indel rate—HDR rate. […]
To investigate the effects of lipid-mediated transfection, BEC were transfected with spCAS9 mRNA, AAVS1 sgRNA and AAVS1 PAM ssODN and then incubated with different concentration of Compound 1 or left untreated (Control). Gene editing rates were determined by using TIDE assay 72 hs after transfection.

[3] = tested on: Bronchial Epithelial Cells (BECs), NAV1.7; test: Gene editing rates (TIDE assay) in BECs electroporated with spCAS9 mRNA, NAV1.7 sgRNA and NAV1.7 Non-PAM ssODN
Description: as §5
(§7) For BECs, the following conditions were used for electroporation: 1.8×E5 Cells, 250 ng of CAS9 mRNA, 500 ng of sgRNA and 0.66 μM of ssODN in 20 μl of P4 Electroporation buffer by using program CM-138. The electroporated cells were transferred to a 96 well plate containing 100 μl of BEC culture media supplemented with DNA-PK inhibitors or left untreated. Cells were incubated at 37° C. in a 5% CO2 incubator.
as §3, §4
FIG. 1 illustrates the design of the gene editing assays used in the examples below. To investigate the effect of DNA-PK inhibitors on HDR gene editing rates, BECs were electroporated with spCAS9 mRNA, NAV1.7 sgRNA and NAV1.7 Non-PAM ssODN and then incubated with different concentrations Compound 1 or left untreated (Control). Gene editing rates were determined by using TIDE assay 72 hs after electroporation. Gene editing rates were expressed in percentages and classified as HDR and NHEJ. Cell survival rates are shown in percentages where control cells were set as 100%.

mPB CD34+ cells, NAV1.7 = test: Gene editing rates (TIDE assay) in mPB CD34+ cells electroporated with RNP (spCAS9 protein+NAV1.7 sgRNA) and NAV1.7 Non-PAM ssODN; conditions: for pEC50: Homo sapiens
Description: as §1, §2, §3, §4
To investigate the effect of DNA-PK inhibitors on HDR gene editing rates, mPB CD34+ cells were electroporated with RNP (spCAS9 protein+NAV1.7 sgRNA) and NAV1.7 Non-PAM ssODN. Cells were then incubated with various concentrations of Compound 1. Gene editing rates were determined by using TIDE assay 48 h after electroporation. Gene editing rates were expressed in percentages and classified as HDR and NHEJ as shown in FIG. 3A (Donor B) and FIG. 3B (Donor C. Cell survival rates are shown in percentages where control cells were set as 100%.

[4] = tested on: Bronchial Epithelial Cells (BECs), AAVS1; test: Gene editing rates (TIDE assay) in BECs electroporated with spCAS9 mRNA, AAVS1 sgRNA and AAVS1 PAM ssODN
Description: as §5, §7
as §3, with “reverse).” for “reverse). Primers used by Sanger Sequencing are indicated by an asterisk (*):”
as §6
To investigate the gene editing kinetics at EC max, BECs were electroporated with spCAS9 mRNA, AAVS1 sgRNA and AAVS1 PAM ssODN and then incubated at different times with 10 μM Compound 1 or left untreated (Control). Gene editing rates were determined by using TIDE assay and expressed in percentages of HDR and NHEJ. […]
BECs were electroporated with spCAS9 mRNA, AAVS1 sgRNA and AAVS1 PAM ssODN and then incubated at different times with 0.7 μM Compound 1 or left untreated (Control). Gene editing rates were determined by using TIDE assay and expressed in percentages of HDR and NHEJ. […]

**Q.** What does the source list for `Cn1c(=O)cnc2cc(N3CCOCC3)cc(O[C@H]3CC[C@@H](Nc4ncccn4)CC3)c21` [Compound 1, 1-methyl-6-morpholino-8-(((1,4-cis)-4-(pyrimidin-2-ylamino)cyclohexyl)oxy)quinoxalin-2(1H)-one]?
**A.** HDR Max % (CD34+ cells, AAVS1; Donor A): 76%; HDR Max % (CD34+ cells, AAVS1; Donor C): 88%; pEC50 (CD34+ cells, AAVS1; Donor A): 6.92; pEC50 (CD34+ cells, AAVS1; Donor C): 6.74; HDR Max % ([1]; AAVS1): 24%; HDR TOP % ([1]; AAVS1, TIDE assay 72 hs after electroporation): 24.41%; pEC50 ([1]; Homo sapiens, iPSC, AAVS1, TIDE assay 72 hs after electroporation, read-out: HDR EC50): 6.49; pIC50 ([1]; Homo sapiens, iPSC, AAVS1, TIDE assay 72 hs after electroporation, read-out: NHEJ IC50): 6.32; pEC50 ([1]; Homo sapiens, iPSC, AAVS1, read-out: HDR EC50): 6.48; HDR efficiency rates [2]: increasing HDR efficiency rates with increasing concentrations; pEC50 ([3]; Homo sapiens, Epithelial cell, NAV1.7, TIDE assay 72 hs after electroporation, read-out: HDR EC50): 6.35; pIC50 ([3]; Homo sapiens, Epithelial cell, NAV1.7, TIDE assay 72 hs after electroporation, read-out: NHEJ IC50): 6.35; pEC50 ([3]; Homo sapiens, Epithelial cell, NaV1.7, read-out: HDR EC50): 6.14; HDR TOP % ([3]; NAV1.7, TIDE assay 72 hs after electroporation): 69.37%; HDR Max % ([3]; NaV1.7): 69%; HDR Max % (mPB CD34+ cells, NAV1.7; CD34+, Donor A, NaV1.7): 82%; HDR Max % (mPB CD34+ cells, NAV1.7; CD34+, Donor B, NaV1.7): 86%; HDR Max % (mPB CD34+ cells, NAV1.7; CD34+, Donor C, NaV1.7): 67%; pEC50 (mPB CD34+ cells, NAV1.7; 48 h, CD34+ cells, Donor B, NAV1.7, 48 h after electroporation, read-out: EC50 of HDR): 6.54; pEC50 (mPB CD34+ cells, NAV1.7; 48 h, CD34+ cells, Donor B, NAV1.7, 48 h after electroporation, read-out: EC50 of Indel formation): 6.46; pEC50 (mPB CD34+ cells, NAV1.7; CD34+, Donor A, NaV1.7, read-out: HDR EC50): 6.41; pEC50 (mPB CD34+ cells, NAV1.7; CD34+, Donor B, NaV1.7, read-out: HDR EC50): 6.54; pEC50 (mPB CD34+ cells, NAV1.7; CD34+, Donor C, NaV1.7, read-out: HDR EC50): 6.96; HDR Max % [4]: 66%; Maximum Enhance Concentration (ECmax) [4]: 10 µM; pEC50 ([4]; Homo sapiens, Epithelial cell, read-out: Enhance Concentration 50 (EC50)): 6.15

Source: patent US12269804B2, “Quinoxalinone compounds, compositions, methods, and kits for increasing genome editing efficiency” (VERTEX PHARMACEUTICALS INCORPORATED, priority 2018, dated 2025)
